# From ChEMBL document CHEMBL1275326, “Synthesis and identification of a new class of antileukemic agents containing 2-(arylcarboxamide)-(S)-6-amino-4,5,6,7-tetrahydrobenzo[d]thiazole” (Eur J Med Chem, 2010)
# The source made the active and inactive calls. No cut-off for these calls is given here.
# Experiments:
# K562 [1] = assay: Cytotoxicity against human K562 cells after 48 to 72 hrs by MTT assay; type: functional, cell-based
# CCRF-CEM [2] = assay: Cytotoxicity against human CEM cells after 48 to 72 hrs by MTT assay; type: functional, cell-based
# [3] = Cytotoxicity against human HEK293T cells at 1 to 5 uM after 48 to 72 hrs by MTT assay; type: cell-based; details: hek-293t
# K562 [4] = assay: Cell cycle arrest in human K562 cells assessed as accumulation at G2/M phase at 10 uM after 48 hrs using propidium iodide staining by FACS analysis; type: functional, cell-based
# K562 [5] = assay: Cytotoxicity against human K562 cells after 24 hrs by LDH release assay; type: functional, cell-based
# K562 [6] = assay: Cytotoxicity against human K562 cells at 10 to 100 uM by MTT assay; type: functional, cell-based; details: TDE = time-dependent effect
# K562 [7] = assay: Cytotoxicity against human K562 cells at 10 to 100 uM after 24 hrs by trypan blue exclusion assay; type: functional, cell-based
# CCRF-CEM [8] = assay: Cytotoxicity against human CEM cells at 10 to 100 uM by MTT assay; type: functional, cell-based; details: TDE = time-dependent effect
# K562 [9] = assay: Cell cycle arrest in human K562 cells assessed as accumulation at S phase at 10 uM after 48 hrs using propidium iodide staining by FACS analysis; type: functional, cell-based
# K562 [10] = assay: Cell cycle arrest in human K562 cells assessed as accumulation at G0/G1 phase at 10 uM after 48 hrs using propidium iodide staining by FACS analysis; type: functional, cell-based
# K562 [11] = assay: Cell cycle arrest in human K562 cells assessed as accumulation at G1 phase at 10 uM after 48 hrs using propidium iodide staining by FACS analysis; type: functional, cell-based
smiles,measurement,setting,value
N[C@H]1CCc2nc(NC(=O)c3ccccc3)sc2C1,IC50,K562 [1],65.7 µM
same,IC50,CCRF-CEM [2],61.4 µM
N[C@H]1CCc2nc(NC(=O)c3cc([N+](=O)[O-])cc([N+](=O)[O-])c3)sc2C1,IC50,K562 [1],8.16 µM
same,IC50,CCRF-CEM [2],9.02 µM
N[C@H]1CCc2nc(NC(=O)c3cccc(Br)c3)sc2C1,IC50,K562 [1],21 µM
same,IC50,CCRF-CEM [2],22.8 µM
N[C@H]1CCc2nc(NC(=O)c3ccc(Cl)cc3Cl)sc2C1,IC50,K562 [1],7.72 µM
same,IC50,CCRF-CEM [2],8.72 µM
COc1cccc(C(=O)Nc2nc3c(s2)C[C@@H](N)CC3)c1,IC50,K562 [1],17.9 µM
same,IC50,CCRF-CEM [2],13.8 µM
N[C@H]1CCc2nc(NC(=O)c3c(F)cccc3F)sc2C1,IC50,K562 [1],> 100 µM
same,IC50,CCRF-CEM [2],81.2 µM
N[C@H]1CCc2nc(NC(=O)c3ccccc3F)sc2C1,IC50,K562 [1],57.2 µM
same,IC50,CCRF-CEM [2],56.6 µM
CC(C)(C)c1ccc(C(=O)Nc2nc3c(s2)C[C@@H](N)CC3)cc1.Cl,Activity,[3],Non-toxic
same,Activity,K562 [1],Dose-dependent effect
same,IC50,K562 [1],4.52 µM
same,Activity,K562 [4],inactive
same,Activity,K562 [5],Dose-dependent effect
same,Activity,CCRF-CEM [2],Dose-dependent effect
same,IC50,CCRF-CEM [2],4.52 µM
same,Activity,K562 [6],tde
same,Activity,K562 [7],Active
same,Activity,CCRF-CEM [8],tde
same,Activity,K562 [9],inactive
same,Activity,K562 [10],inactive
same,Activity,K562 [11],inactive
